According to the NIST ThermoML archive (doi:10.1016/j.tca.2013.03.013):
± gives the expanded uncertainty stated by the source.

Details: Crystal

Normal melting temperature (DTA): 261.4 ± 0.7 °C
Normal melting temperature (visual observation): 262.00 ± 0.5 °C
Structure (SMILES): CC1(C)O[C@@H]2C[C@H]3[C@@H]4C[C@H](F)C5=CC(=O)C=C[C@]5(C)[C@@]4(F)[C@@H](O)C[C@]3(C)[C@]2(C(=O)CO)O1 [fluocinolone acetonide]
